≈ marks a conversion by molar mass, not a printed value. Read-outs that look alike come from different tables or passages of the source.
What was measured:
E. coli containing KPC-2 = test: MIC by broth microdilution, E. coli containing KPC-2 (Ec KPC2 Iso); type: cell-based; conditions: Escherichia coli, read-out: Ec KPC2 Iso (MIC), E. coli containing KPC-2 (carbapenemase from Klebsiella pneumoniae)
Summary of the method: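 Host E. coli BW25113 pspB carrying multicopy pBAD18-kan plasmid with constitutive TEM-promoter KPC-2 expression (periplasmic signal sequence); broth microdilution per CLSI in cation-adjusted Mueller-Hinton broth, inoculum ~5×10^5 CFU/mL, compounds twofold serially diluted from DMSO masters (10% DMSO in dilution series added).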

E. coli strain 25922 = test: MIC by broth microdilution, E. coli strain 25922; type: cell-based
Summary of the method: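 CLSI broth microdilution in cation-adjusted Mueller-Hinton broth, inoculum about 5×10^5 CFU/mL, 10% DMSO from the diluted series, 20 h at 35-37° C. MIC is the lowest concentration preventing visible growth, read by eye and at 600 nm.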

[1] = Escherichia coli, 25922, E. coli strain 25922, read-out: Ec 25922 (MIC)

Row | Compound | MIC (E. coli containing KPC-2) [µg/mL] | MIC (E. coli strain 25922; [1]) [µg/mL] | MIC (E. coli strain 25922; Escherichia coli, 25922, read-out: Ec 25922 (MIC)) [µg/mL]
1 | Nc1nc(/C(=N/OC2(C(=O)O)CC2)C(=O)N[C@@H]2C(=O)N(S(=O)(=O)O)[C@@H]2Cn2ncc(CN[C@H]3CCNC3)n2)cs1 [Example 91, 1-(((Z)-(1-(2-aminothiazol-4-yl)-2-oxo-2-(((3S,4R)-2-oxo-4-((4-(((S)-pyrrolidin-3-ylamino)methyl)-2H-1,2,3-triazol-2-yl)methyl)-1-sulfoazetidin-3-yl)amino)ethylidene)amino)oxy)cyclopropanecarboxylic acid] | 0.25 (≈ 0.418 µM) | 0.125 (≈ 0.209 µM) | –
2 | NCC1CN(Cc2cnn(C[C@@H]3[C@H](NC(=O)/C(=N\OC4(C(=O)O)CC4)c4csc(N)n4)C(=O)N3S(=O)(=O)O)n2)C1 [Example 92, 1-(((Z)-(2-(((2R,3S)-2-((4-((3-(aminomethyl)azetidin-1-yl)methyl)-2H-1,2,3-triazol-2-yl)methyl)-4-oxo-1-sulfoazetidin-3-yl)amino)-1-(2-aminothiazol-4-yl)-2-oxoethylidene)amino)oxy)cyclopropanecarboxylic acid] | 0.5 (≈ 0.835 µM) | 0.25 (≈ 0.418 µM) | –
3 | Nc1nc(/C(=N/OC2(C(=O)O)CC2)C(=O)N[C@@H]2C(=O)N(S(=O)(=O)O)[C@@H]2Cn2ncc(CN[C@H]3C[C@H](N)C3)n2)cs1 [Example 93, 1-(((Z)-(2-(((2R,3S)-2-((4-((((1 r,3R)-3-aminocyclobutyl)amino)methyl)-2H-1,2,3-triazol-2-yl)methyl)-4-oxo-1-sulfoazetidin-3-yl)amino)-1-(2-aminothiazol-4-yl)-2-oxoethylidene)amino)oxy)cyclopropanecarboxylic acid] | 0.5 (≈ 0.835 µM) | 0.25 (≈ 0.418 µM) | –
4 | NCCCNCc1cnn(C[C@@H]2[C@H](NC(=O)/C(=N\OC3(C(=O)O)CC3)c3nsc(N)n3)C(=O)N2S(=O)(=O)O)n1 [Example 94, (((Z)-(1-(5-amino-1,2,4-thiadiazol-3-yl)-2-(((2R,3S)-2-((4-(((3-aminopropyl)amino)methyl)-2H-1,2,3-triazol-2-yl)methyl)-4-oxo-1-sulfoazetidin-3-yl)amino)-2-oxoethylidene)amino)oxy)cyclopropanecarboxylic acid] | 1 (≈ 1.7 µM) | 0.5 (≈ 0.851 µM) | –
5 | Nc1nc(/C(=N/OC2(C(=O)O)CC2)C(=O)N[C@@H]2C(=O)N(S(=O)(=O)O)[C@@H]2CN2C(=O)COC2=O)cs1 [Example 95, 1-(((Z)-(1-(2-aminothiazol-4-yl)-2-(((2R,3S)-2-((2,4-dioxooxazolidin-3-yl)methyl)-4-oxo-1-sulfoazetidin-3-yl)amino)-2-oxoethylidene)amino)oxy)cyclopropanecarboxylic acid] | 0.125 (≈ 0.235 µM) | 0.25 (≈ 0.47 µM) | –
6 | NCCCNCc1nnn(C[C@@H]2[C@H](NC(=O)/C(=N\OC3(C(=O)O)CC3)c3csc(N)n3)C(=O)N2S(=O)(=O)O)n1 [Example 96, 1-(((Z)-(2-(((2R,3S)-2-((5-(((3-aminopropyl)amino)methyl)-2H-tetrazol-2-yl)methyl)-4-oxo-1-sulfoazetidin-3-yl)amino)-1-(2-aminothiazol-4-yl)-2-oxoethylidene)amino)oxy)cyclopropanecarboxylic acid] | 1 (≈ 1.7 µM) | 0.25 (≈ 0.425 µM) | –
7 | NCCNC[C@@H]1CN(C[C@@H]2[C@H](NC(=O)/C(=N\OC3(C(=O)O)CC3)c3csc(N)n3)C(=O)N2S(=O)(=O)O)C(=O)O1 [Example 97, 1-(((Z)-(2-(((2R,3S)-2-(((R)-5-(((2-aminoethyl)amino)methyl)-2-oxooxazolidin-3-yl)methyl)-4-oxo-1-sulfoazetidin-3-yl)amino)-1-(2-aminothiazol-4-yl)-2-oxoethylidene)amino)oxy)cyclopropanecarboxylic acid] | 0.125 (≈ 0.212 µM) | – | 0.125 (≈ 0.212 µM)
8 | Cn1cnn(C[C@@H]2[C@H](NC(=O)/C(=N\OC(C)(C)C(=O)O)c3csc(N)n3)C(=O)N2S(=O)(=O)O)c1=O [Example 98, 2-(((Z)-(1-(2-aminothiazol-4-yl)-2-(((2R,3S)-2-((4-methyl-5-oxo-4,5-dihydro-1H-1,2,4-triazol-1-yl)methyl)-4-oxo-1-sulfoazetidin-3-yl)amino)-2-oxoethylidene)amino)oxy)-2-methylpropanoic acid] | 0.5 (≈ 0.939 µM) | 2 (≈ 3.76 µM) | –
9 | CN(C)Cc1cnn(C[C@@H]2[C@H](NC(=O)/C(=N\OC(C)(C)C(=O)O)c3csc(N)n3)C(=O)N2S(=O)(=O)O)n1 [Example 99, 2-(((Z)-(1-(2-aminothiazol-4-yl)-2-(((2R,3S)-2-((4-((dimethylamino)methyl)-2H-1,2,3-triazol-2-yl)methyl)-4-oxo-1-sulfoazetidin-3-yl)amino)-2-oxoethylidene)amino)oxy)-2-methylpropanoic acid] | 4 (≈ 7.15 µM) | 2 (≈ 3.57 µM) | –
10 | CNCc1cnn(C[C@@H]2[C@H](NC(=O)/C(=N\OC(C)(C)C(=O)O)c3csc(N)n3)C(=O)N2S(=O)(=O)O)n1 [Example 100, 2-(((Z)-(1-(2-aminothiazol-4-yl)-2-(((2R,3S)-2-((4-((methylamino)methyl)-2H-1,2,3-triazol-2-yl)methyl)-4-oxo-1-sulfoazetidin-3-yl)amino)-2-oxoethylidene)amino)oxy)-2-methylpropanoic acid] | 4 (≈ 7.33 µM) | 1 (≈ 1.83 µM) | –
11 | CC(C)(O/N=C(\C(=O)N[C@@H]1C(=O)N(S(=O)(=O)O)[C@@H]1Cc1cn(CCN)nn1)c1csc(N)n1)C(=O)O [Example 101, 2-(((Z)-(2-(((2R,3S)-2-((1-(2-aminoethyl)-1H-1,2,3-triazol-4-yl)methyl)-4-oxo-1-sulfoazetidin-3-yl)amino)-1-(2-aminothiazol-4-yl)-2-oxoethylidene)amino)oxy)-2-methylpropanoic acid] | 1 (≈ 1.83 µM) | 1 (≈ 1.83 µM) | –
12 | NCCNCc1cnn(C[C@@H]2[C@H](NC(=O)/C(=N\OC3(C(=O)O)CC3)c3csc(N)n3)C(=O)N2S(=O)(=O)O)n1 [Example 102, 1-(((Z)-(2-(((2R,3S)-2-((4-(((2-aminoethyl)amino)methyl)-2H-1,2,3-triazol-2-yl)methyl)-4-oxo-1-sulfoazetidin-3-yl)amino)-1-(2-aminothiazol-4-yl)-2-oxoethylidene)amino)oxy)cyclopropanecarboxylic acid] | 0.25 (≈ 0.437 µM) | 0.25 (≈ 0.437 µM) | –
13 | N=CNC[C@@H]1CN(C[C@@H]2[C@H](NC(=O)/C(=N\OC3(C(=O)O)CC3)c3csc(N)n3)C(=O)N2S(=O)(=O)O)C(=O)O1 [Example 104, 1-(((Z)-(1-(2-aminothiazol-4-yl)-2-(((2R,3S)-2-(((R)-5-(formimidamidomethyl)-2-oxooxazolidin-3-yl)methyl)-4-oxo-1-sulfoazetidin-3-yl)amino)-2-oxoethylidene)amino)oxy)cyclopropanecarboxylic acid] | > 64 | > 64 | –
14 | CC(C)(O/N=C(\C(=O)N[C@@H]1C(=O)N(S(=O)(=O)O)[C@@H]1Cn1cnc(C#N)n1)c1csc(N)n1)C(=O)O [Example 105, 2-(((Z)-(1-(2-aminothiazol-4-yl)-2-(((2R,3S)-2-((3-cyano-1H-1,2,4-triazol-1-yl)methyl)-4-oxo-1-sulfoazetidin-3-yl)amino)-2-oxoethylidene)amino)oxy)-2-methylpropanoic acid] | 32 (≈ 60.7 µM) | 16 (≈ 30.3 µM) | –
15 | Nc1nc(/C(=N/OC2(C(=O)O)CC2)C(=O)N[C@@H]2C(=O)N(S(=O)(=O)O)[C@@H]2Cn2ncc(CN3CC(N)C3)n2)cs1 [Example 106, 1-(((Z)-(2-(((2R,3S)-2-((4-((3-aminoazetidin-1-yl)methyl)-2H-1,2,3-triazol-2-yl)methyl)-4-oxo-1-sulfoazetidin-3-yl)amino)-1-(2-aminothiazol-4-yl)-2-oxoethylidene)amino)oxy)cyclopropanecarboxylic acid] | ≤ 0.06 | ≤ 0.06 | –

Source: patent US10369138B2, “Monobactam organic compounds for the treatment of bacterial infections” (Novartis AG, priority 2014, dated 2019)
